Structures are written as SMILES.

One experiment deals with NCI-H2228. The experiment can be described thus: relative viability (nuclei count vs DMSO), 5 days (fraction); higher = more cells survive. Particulars: first compound 0.6325 µM. The procedure, abridged: (§1)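 Lung cancer cell lines in 1536-well plates were dosed by pin tool the day after seeding, either with one drug alone or with a fixed anchor-drug dose plus five library-drug doses (not always all listed) in √10 steps. After 5 days, cells were fixed and their nuclei stained in one step (final 0.05% Triton X-100, 1% formaldehyde, 1 ug/ml Hoechst), then counted on 4× images. Relative viability is the nuclei count in treated wells divided by that in vehicle wells. Values are medians of duplicate plates.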
`COCC1(CO)C(=O)C2CCN1CC2` (configuration not stated) [PRIMA-1MET] + C[C@]1(O)C[C@@H](c2nc(-c3ccc4ccc(-c5ccccc5)nc4c3)c3c(N)nccn32)C1 [Linsitinib] (partner 1 µM) displayed a relative viability of 0.552.

In turn, `COCC1(CO)C(=O)C2CCN1CC2` (configuration not stated) [PRIMA-1MET] + Cc1cc(Nc2cc(N3CCN(C)CC3)nc(Sc3ccc(NC(=O)C4CC4)cc3)n2)n[nH]1 [Tozasertib] (partner 0.1 µM) yielded a relative viability of 0.262.

Consider `COCC1(CO)C(=O)C2CCN1CC2` (configuration not stated) [PRIMA-1MET] + Cc1nc(NC(=O)N2CCC[C@H]2C(N)=O)sc1-c1ccnc(C(C)(C)C(F)(F)F)c1 [Alpelisib] (partner 2 µM), for which the relative viability is 0.654.

Turning to `COCC1(CO)C(=O)C2CCN1CC2` (configuration not stated) [PRIMA-1MET] + C[C@@H](Oc1cc(-c2cnn(C3CCNCC3)c2)cnc1N)c1c(Cl)ccc(F)c1Cl [Crizotinib] (partner 1 µM), the relative viability came out at 0.455.

Staying with this experiment, now noted: first compound 2 µM.
In the case of `COCC1(CO)C(=O)C2CCN1CC2` (configuration not stated) [PRIMA-1MET] + O=C(CCCCCCC(=O)Nc1ccccc1)NO [Vorinostat] (partner 1 µM), the relative viability amounted to 0.6.

For the molecule `COCC1(CO)C(=O)C2CCN1CC2` (configuration not stated) [PRIMA-1MET] + C[C@]1(O)C[C@@H](c2nc(-c3ccc4ccc(-c5ccccc5)nc4c3)c3c(N)nccn32)C1 [Linsitinib] (partner 1 µM), the relative viability is 0.602.

`COCC1(CO)C(=O)C2CCN1CC2` (configuration not stated) [PRIMA-1MET] + Cc1cc(Nc2cc(N3CCN(C)CC3)nc(Sc3ccc(NC(=O)C4CC4)cc3)n2)n[nH]1 [Tozasertib] (partner 0.1 µM) had a relative viability of 0.322.

For `COCC1(CO)C(=O)C2CCN1CC2` (configuration not stated) [PRIMA-1MET] + Cc1nc(NC(=O)N2CCC[C@H]2C(N)=O)sc1-c1ccnc(C(C)(C)C(F)(F)F)c1 [Alpelisib] (partner 2 µM), the relative viability came to 0.744.

As for `COCC1(CO)C(=O)C2CCN1CC2` (configuration not stated) [PRIMA-1MET] + C[C@@H](Oc1cc(-c2cnn(C3CCNCC3)c2)cnc1N)c1c(Cl)ccc(F)c1Cl [Crizotinib] (partner 1 µM), the relative viability was found to be 0.444.

The same experiment, now with this note: first compound 6.325 µM.
`COCC1(CO)C(=O)C2CCN1CC2` (configuration not stated) [PRIMA-1MET] + O=C(CCCCCCC(=O)Nc1ccccc1)NO [Vorinostat] (partner 1 µM) showed a relative viability of 0.606.

Turning to `COCC1(CO)C(=O)C2CCN1CC2` (configuration not stated) [PRIMA-1MET] + C[C@]1(O)C[C@@H](c2nc(-c3ccc4ccc(-c5ccccc5)nc4c3)c3c(N)nccn32)C1 [Linsitinib] (partner 1 µM), the relative viability is 0.61.

For `COCC1(CO)C(=O)C2CCN1CC2` (configuration not stated) [PRIMA-1MET] + Cc1cc(Nc2cc(N3CCN(C)CC3)nc(Sc3ccc(NC(=O)C4CC4)cc3)n2)n[nH]1 [Tozasertib] (partner 0.1 µM), the relative viability is 0.203.

`COCC1(CO)C(=O)C2CCN1CC2` (configuration not stated) [PRIMA-1MET] + Cc1nc(NC(=O)N2CCC[C@H]2C(N)=O)sc1-c1ccnc(C(C)(C)C(F)(F)F)c1 [Alpelisib] (partner 2 µM) displayed a relative viability of 0.534.

For `COCC1(CO)C(=O)C2CCN1CC2` (configuration not stated) [PRIMA-1MET] + C[C@@H](Oc1cc(-c2cnn(C3CCNCC3)c2)cnc1N)c1c(Cl)ccc(F)c1Cl [Crizotinib] (partner 1 µM), the relative viability worked out at 0.547.

The same experiment, now with this note: first compound 20 µM.
In the case of `COCC1(CO)C(=O)C2CCN1CC2` (configuration not stated) [PRIMA-1MET] + O=C(CCCCCCC(=O)Nc1ccccc1)NO [Vorinostat] (partner 1 µM), the relative viability came out at 0.0625.

As to `COCC1(CO)C(=O)C2CCN1CC2` (configuration not stated) [PRIMA-1MET] + C[C@]1(O)C[C@@H](c2nc(-c3ccc4ccc(-c5ccccc5)nc4c3)c3c(N)nccn32)C1 [Linsitinib] (partner 1 µM), the relative viability amounted to 0.046.

Take `COCC1(CO)C(=O)C2CCN1CC2` (configuration not stated) [PRIMA-1MET] + Cc1cc(Nc2cc(N3CCN(C)CC3)nc(Sc3ccc(NC(=O)C4CC4)cc3)n2)n[nH]1 [Tozasertib] (partner 0.1 µM): the relative viability turned out to be 0.0992.

The molecule `COCC1(CO)C(=O)C2CCN1CC2` (configuration not stated) [PRIMA-1MET] + Cc1nc(NC(=O)N2CCC[C@H]2C(N)=O)sc1-c1ccnc(C(C)(C)C(F)(F)F)c1 [Alpelisib] (partner 2 µM) yielded a relative viability of 0.0746.

In the case of `COCC1(CO)C(=O)C2CCN1CC2` (configuration not stated) [PRIMA-1MET] + C[C@@H](Oc1cc(-c2cnn(C3CCNCC3)c2)cnc1N)c1c(Cl)ccc(F)c1Cl [Crizotinib] (partner 1 µM), the relative viability worked out at 0.0537.

A further experiment has as its system NCI-H2405. The experiment is described as above. Particulars: first compound 0.2 µM. The gist of the method:
as §1
Consider `COCC1(CO)C(=O)C2CCN1CC2` (configuration not stated) [PRIMA-1MET] + O=C(CCCCCCC(=O)Nc1ccccc1)NO [Vorinostat] (partner 1 µM), for which the relative viability was 1.03.

`COCC1(CO)C(=O)C2CCN1CC2` (configuration not stated) [PRIMA-1MET] + C[C@]1(O)C[C@@H](c2nc(-c3ccc4ccc(-c5ccccc5)nc4c3)c3c(N)nccn32)C1 [Linsitinib] (partner 1 µM) registered a relative viability of 0.635.

With `COCC1(CO)C(=O)C2CCN1CC2` (configuration not stated) [PRIMA-1MET] + Cc1cc(Nc2cc(N3CCN(C)CC3)nc(Sc3ccc(NC(=O)C4CC4)cc3)n2)n[nH]1 [Tozasertib] (partner 0.1 µM), the relative viability turned out to be 0.735.

Turning to `COCC1(CO)C(=O)C2CCN1CC2` (configuration not stated) [PRIMA-1MET] + Cc1nc(NC(=O)N2CCC[C@H]2C(N)=O)sc1-c1ccnc(C(C)(C)C(F)(F)F)c1 [Alpelisib] (partner 2 µM), the relative viability was determined as 0.517.

As to `COCC1(CO)C(=O)C2CCN1CC2` (configuration not stated) [PRIMA-1MET] + C[C@@H](Oc1cc(-c2cnn(C3CCNCC3)c2)cnc1N)c1c(Cl)ccc(F)c1Cl [Crizotinib] (partner 1 µM), the relative viability amounted to 0.679.

Still in this experiment, the particulars now being: first compound 0.6325 µM.
With `COCC1(CO)C(=O)C2CCN1CC2` (configuration not stated) [PRIMA-1MET] + O=C(CCCCCCC(=O)Nc1ccccc1)NO [Vorinostat] (partner 1 µM), the relative viability is 0.945.

`COCC1(CO)C(=O)C2CCN1CC2` (configuration not stated) [PRIMA-1MET] + C[C@]1(O)C[C@@H](c2nc(-c3ccc4ccc(-c5ccccc5)nc4c3)c3c(N)nccn32)C1 [Linsitinib] (partner 1 µM) yielded a relative viability of 1.01.

In the case of `COCC1(CO)C(=O)C2CCN1CC2` (configuration not stated) [PRIMA-1MET] + Cc1cc(Nc2cc(N3CCN(C)CC3)nc(Sc3ccc(NC(=O)C4CC4)cc3)n2)n[nH]1 [Tozasertib] (partner 0.1 µM), the relative viability amounted to 0.812.

Consider `COCC1(CO)C(=O)C2CCN1CC2` (configuration not stated) [PRIMA-1MET] + Cc1nc(NC(=O)N2CCC[C@H]2C(N)=O)sc1-c1ccnc(C(C)(C)C(F)(F)F)c1 [Alpelisib] (partner 2 µM), for which the relative viability came out at 0.896.

As to `COCC1(CO)C(=O)C2CCN1CC2` (configuration not stated) [PRIMA-1MET] + C[C@@H](Oc1cc(-c2cnn(C3CCNCC3)c2)cnc1N)c1c(Cl)ccc(F)c1Cl [Crizotinib] (partner 1 µM), the relative viability amounted to 0.847.

The experiment is the same for the next values; noted with them: first compound 6.325 µM.
For the molecule `COCC1(CO)C(=O)C2CCN1CC2` (configuration not stated) [PRIMA-1MET] + O=C(CCCCCCC(=O)Nc1ccccc1)NO [Vorinostat] (partner 1 µM), the relative viability was 0.934.

The molecule `COCC1(CO)C(=O)C2CCN1CC2` (configuration not stated) [PRIMA-1MET] + C[C@]1(O)C[C@@H](c2nc(-c3ccc4ccc(-c5ccccc5)nc4c3)c3c(N)nccn32)C1 [Linsitinib] (partner 1 µM) gave a relative viability of 0.727.

`COCC1(CO)C(=O)C2CCN1CC2` (configuration not stated) [PRIMA-1MET] + Cc1cc(Nc2cc(N3CCN(C)CC3)nc(Sc3ccc(NC(=O)C4CC4)cc3)n2)n[nH]1 [Tozasertib] (partner 0.1 µM) registered a relative viability of 0.667.
